According to patent publication US10021861B2, “Genetically modified non-human animals and methods relating to innate immune system response detection” (The Jackson Laboratory, priority 2013, dated 2018):
Marks after values point to notes of the source that are not given here.

Experiments:
Format in all cases: in vivo
[1] = system: mouse innate immune cells; test: CD40 and CD86 expression on mouse innate immune cells from spleen of NSG-TLR4^null mice (flow cytometry)
Method: (§1) (San Jose, Calif.), eBiosciences (San Diego, Calif.) or BioLegend, (San Diego, Calif.). […] Single-cell suspensions of bone marrow (BM) and spleen were prepared from engrafted mice, and whole blood was collected in heparin. Single cell suspensions of 1×10^6 cells in 50 μL or 100 μL of whole blood were washed with FACS buffer (PBS supplemented with 2% fetal bovine serum, (HyClone, Logan, Utah) and 0.02% sodium azide (Sigma, St. Louis, Mo.)) and then pre-incubated with rat anti-mouse FcR11b (clone 2.4G2, BD Biosciences) to block Fc binding. Specific antibodies were then added to the samples and incubated for 30 min at 4° C. Stained samples were then washed and fixed with 2% paraformaldehyde for cell suspensions or treated with BD FACS lysing solution for whole blood. At least 50,000 events were acquired on LSRII or FACSCalibur instruments (BD Biosciences). Data analysis was performed with FlowJo (Tree Star, Inc., Ashland, Oreg.) software. Ultra Pure lipopolysaccharide (LPS, E. coli 0111:B4 strain), and polyinosinic-polycytidylic (poly(I:C), high molecular weight, HMW) were purchased from Invivogen (San Diego, Calif.). The indicated mice were injected intraperitoneally (IP) with 100 μg of either LPS or poly(I:C). To confirm that NSG-TLR4^null mice are unable to respond to TLR4 agonists, NSG and NSG-TLR4^null mice were treated with LPS and the ability of innate immune cells to increase expression of phenotypic markers (Table I) and produce cytokines (FIG. 2) was evaluated.

[2] = system: mouse innate immune cells; test: CD40 and CD86 expression on mouse innate immune cells from spleen of NSG mice (flow cytometry); settings: 100 μg IP, 24 hours
Method: as §1

[3] = system: mouse innate immune cells; test: Mouse serum cytokines by cytometric bead array in NSG-TLR4^null mice (unmanipulated or HSC-engrafted); settings: in both NSG and NSG-TLR4^null mice, 100 μg IP, 24 hours
[4] = NSG-TLR4^null mice, 100 μg IP, 24 hours, spleen

Substance: polyinosinic-polycytidylic [poly(IC)]
- CD40 Expression, CD11b+ Macrophage [1, 4]: 4168 ± 104
- CD40 Expression, CD11c+/CD11b+ DC [1, 4]: 5035 ± 3278^b
- CD40 Expression, CD11c+/CD11b− DC [1, 4]: 16160 ± 3782^b
- CD86 Expression, CD11b+ Macrophage [1, 4]: 77.77 ± 15.96
- CD86 Expression, CD11c+/CD11b+ DC [1, 4]: 635 ± 57.7^b
- CD86 Expression, CD11c+/CD11b− DC [1, 4]: 1315 ± 82^b
- induced increases in the expression of CD40 and CD86 on mouse innate immune cells ([1]; between NSG and NSG-TLR4^null mice): similar
- CD40 Expression, CD11b+ Macrophage [2]: 3909 ± 377
- CD40 Expression, CD11c+/CD11b+ DC [2]: 6860 ± 1276^b
- CD40 Expression, CD11c+/CD11b− DC [2]: 19935 ± 1020^b
- CD86 Expression, CD11b+ Macrophage [2]: 68.27 ± 5.93
- CD86 Expression, CD11c+/CD11b+ DC [2]: 540.3 ± 40^b
- CD86 Expression, CD11c+/CD11b− DC [2]: 1111 ± 141^c
- mouse cytokine response [3]: similar
